US20040097408A1, “Compounds regulating cell proliferation and differentiation” (priority 2001, published 2004)

How the values were obtained:
[1] = total body weight of mice during treatment; format: in vivo, mouse; details: relative to weight at the beginning of the experiment; 20 mg/kg twice a day
From the text: The total weight of the mice was also monitored every other day during the course of the treatment with F16.

A6 cells = test: electron-microscopy analysis of mitochondria; format: cell-based, mouse; details: 3 μM F16, abnormalities evident as early as 15 hr
Description: (§1) Electron-microscopy analysis was performed on untreated or F16-treated A6 cells, control cells and tumor cell lines SH1.1 and SMF to search for potential mitochondria lesions due to F16 accumulation. Cells grown in 35 mm dishes were left untreated or treated with 3 μM F16 for the indicated times, and fixed for 1 hr at room temperature in 0.1 M Cacodylate buffer containing 1.25% formaldehyde, 2.5% glutaraldehyde and 0.3% picric acid. Samples were then treated with 1% osmiuntetroxide/1.5% potassiumferrocyanide, followed by 1% uranyl acetate, dehydrated and epon-araldite embedded. Ultrathin sections were examined using a JEOL 1200EX microscope.

control cells = test: electron-microscopy analysis of mitochondria; format: cell-based, mouse; details: 3 μM F16
Description: as §1

[2] = tested on: EpH4-EV and EpH4-A6 cells; test: intracellular colocalization with Mitotracker Red / Lysotracker Red / Hoescht; format: cell-based, mouse; details: 3 μM F16, 2 hours
Description: 2×10^4 EpH4-EV and EpH4-A6 cells were seeded in 6 well chamber slides. Next morning, cells were left untreated or treated with F16 at 3 μM for 2 hours. Cells were incubated with Hoescht stain for 30 minutes and then visualized under the microscope. Hoescht stain specifically stains the nuclei of cells. A mitochondrial specific stain, Mitotracker Red (Molecular Probes), was added to the medium to stain mitochondria, and Lysotracker Red to stain lysosomes and acidic compartments, according to manufacturer procedure. Hoescht stain was also included in the medium (together with the other stains). Cells were photographed under Axioskop (Zeiss) using a Spot Camera (Diagnostic Instruments).

[3] = tested on: β-catenin-initiated mouse breast tumor cell lines
ZR75 = test: cell count proliferation assay; format: cell-based; parameters: key: +: A positive scoring in these Tables represent cells in which a 2-5 and a 10-40 fold reduction in the total number of cells relative to the control untreated cells was observed after 3 and 7 days of culture with F16, respectively; details: ZR75, human breast; F16 3 μM, cells counted after 3 and 7 days
From the text: (§2) The following panel of mouse tumor cell lines derived from Neu, Ras and Myc transgenic mice and panel of human cancer cell lines were used: a) Neu-initiated mouse tumor cell lines NF980, NF324-2A, NF324-1B, SMF, NAF, Neu4145, n-Neu, Ras-initiated mouse tumor cell lines SH1,1, AC236, AC711, AC816, ACp53^−#1, ACp53^−4782, AC222, AC99, AC260, ACp53^−#19, ACp53^−#16, AC/Balb6.6, AC/Balb14, AC/Balb12 and Myc-initiated mouse tumor cell lines 16MB9a, 13MA1a; and b) human breast tumor cell lines MDA-MB231, MDA-MB435, MDA-MB436, MDA-MB453, MDA-MB-468, SKBR-3, MCF-7, T47D, ZR75; human prostate cancer cell lines LNCaP, PC-3, DU145 and the human ovarian cancer cell line SKOV-3.
(§3) For each cell line, 10^5 cells were seeded in 4×6 well plates. Next day, F16 was added at 3 μM to the medium of 2 of the plates, while the other two were left untreated (control). Cells were counted 3 days and 7 days after initiation of treatment.
(§4) A positive scoring in these Tables represent cells in which a 2-5 and a 10-40 fold reduction in the total number of cells relative to the control untreated cells was observed after 3 and 7 days of culture with F16, respectively.

SKBR-3 = test: cell count proliferation assay; format: cell-based; parameters: key: +: A positive scoring in these Tables represent cells in which a 2-5 and a 10-40 fold reduction in the total number of cells relative to the control untreated cells was observed after 3 and 7 days of culture with F16, respectively; details: SKBR-3, human breast; F16 3 μM, cells counted after 3 and 7 days
From the text: as §2, §3, §4

MDA-MB-468 = test: cell count proliferation assay; format: cell-based; parameters: key: +: A positive scoring in these Tables represent cells in which a 2-5 and a 10-40 fold reduction in the total number of cells relative to the control untreated cells was observed after 3 and 7 days of culture with F16, respectively; details: MDA-MB-468, human breast; F16 3 μM, cells counted after 3 and 7 days
From the text: as §2, §3, §4

MCF-7 = test: cell count proliferation assay; format: cell-based; parameters: key: +: A positive scoring in these Tables represent cells in which a 2-5 and a 10-40 fold reduction in the total number of cells relative to the control untreated cells was observed after 3 and 7 days of culture with F16, respectively; details: MCF-7, human breast; F16 3 μM, cells counted after 3 and 7 days
From the text: as §2, §3, §4

MDA-MB-453 = test: cell count proliferation assay; format: cell-based; parameters: key: +: A positive scoring in these Tables represent cells in which a 2-5 and a 10-40 fold reduction in the total number of cells relative to the control untreated cells was observed after 3 and 7 days of culture with F16, respectively; details: MDA-MB-453, human breast; F16 3 μM, cells counted after 3 and 7 days
From the text: as §2, §3, §4

T47D = test: cell count proliferation assay; format: cell-based; parameters: key: +: A positive scoring in these Tables represent cells in which a 2-5 and a 10-40 fold reduction in the total number of cells relative to the control untreated cells was observed after 3 and 7 days of culture with F16, respectively; details: human breast, F16 3 μM, cells counted after 3 and 7 days
From the text: as §2, §3, §4

MDA-MB-436 = test: cell count proliferation assay; format: cell-based; parameters: key: +: A positive scoring in these Tables represent cells in which a 2-5 and a 10-40 fold reduction in the total number of cells relative to the control untreated cells was observed after 3 and 7 days of culture with F16, respectively; details: MDA-MB-436, human breast; F16 3 μM, cells counted after 3 and 7 days
From the text: as §2, §3, §4

**Q.** With C[n+]1ccc(/C=C/c2c[nH]c3ccccc23)cc1.[I-] [F16] as the compound, how does the “average total body weight loss” value [1] read?
**A.** Its value is 3.3%.

**Q.** What about the mitochondrial ultrastructure (A6 cells) of the same compound?
**A.** Its mitochondrial ultrastructure is “progressive swelling and disruption of mitochondrial integrity”.

**Q.** What about the mitochondrial ultrastructure (control cells) of the same compound?
**A.** Its mitochondrial ultrastructure is “no abnormalities in mitochondria morphology”.

**Q.** And the “intracellular localization of F16 staining” value [2]?
**A.** Its value is “overlapped with the mitochondrial staining, but not with the lysosomal staining”.

**Q.** What about the “selectivity for β-catenin-initiated mouse breast tumor cell lines” value [3] of the same compound?
**A.** The value was “to some extent selectivity”.

**Q.** And the F16 response (ZR75)?
**A.** The F16 response was “+”.

**Q.** And the F16 response (SKBR-3)?
**A.** The F16 response was “+”.

**Q.** And the F16 response (MDA-MB-468)?
**A.** Its F16 response is “+”.

**Q.** What about the F16 response (MCF-7) of the same compound?
**A.** The F16 response was “+”.

**Q.** What about the F16 response (MDA-MB-453) of the same compound?
**A.** Its F16 response is “+”.

**Q.** And the F16 response (T47D)?
**A.** The F16 response was “+”.

**Q.** And the F16 response (MDA-MB-436)?
**A.** The F16 response was “+”.
